Assay results as given in ChEMBL document CHEMBL3399963, “Design, synthesis and preliminary biological evaluation of C-8 substituted guanine derivatives as small molecular inhibitors of FGFRs” (Bioorg Med Chem Lett, 2015).

What was measured:
[1] = Cytotoxicity against human HL7702 cells after 72 hrs by MTT assay; details: L02, 72 h
[2] = Cytotoxicity against human HeLa 229 cells after 72 hrs by MTT assay; details: HeLa 229, 72 h
[3] = target: T1, Fibroblast growth factor receptor 4 (Homo sapiens, UniProt P22455); test: Inhibition of FGFR4 (unknown origin)
[4] = Cytotoxicity against mouse B16F10 cells after 72 hrs by MTT assay; details: B16-F10, 72 h
[5] = target: T1, Fibroblast growth factor receptor 4; test: Inhibition of FGFR4 (unknown origin) after 90 mins by TR-FRET assay
A549 = test: Cytotoxicity against human A549 cells after 72 hrs by MTT assay; details: A549, 72 h
[6] = target: Fibroblast growth factor receptor 3 (Homo sapiens, UniProt P22607); test: Inhibition of FGFR3 (unknown origin) after 90 mins by TR-FRET assay
[7] = Cytotoxicity against human HL7702 cells assessed as cell survival at 2 to 10 uM after 72 hrs by MTT assay; type: cell-based; details: l02, 72 h
[8] = target: Fibroblast growth factor receptor 2 (Homo sapiens, UniProt P21802); test: Inhibition of FGFR2 (unknown origin) after 90 mins by TR-FRET assay
[9] = target: Fibroblast growth factor receptor 1 (Homo sapiens, UniProt P11362)
Chain of Fibroblast growth factor receptor 1 (P11362 whole entry): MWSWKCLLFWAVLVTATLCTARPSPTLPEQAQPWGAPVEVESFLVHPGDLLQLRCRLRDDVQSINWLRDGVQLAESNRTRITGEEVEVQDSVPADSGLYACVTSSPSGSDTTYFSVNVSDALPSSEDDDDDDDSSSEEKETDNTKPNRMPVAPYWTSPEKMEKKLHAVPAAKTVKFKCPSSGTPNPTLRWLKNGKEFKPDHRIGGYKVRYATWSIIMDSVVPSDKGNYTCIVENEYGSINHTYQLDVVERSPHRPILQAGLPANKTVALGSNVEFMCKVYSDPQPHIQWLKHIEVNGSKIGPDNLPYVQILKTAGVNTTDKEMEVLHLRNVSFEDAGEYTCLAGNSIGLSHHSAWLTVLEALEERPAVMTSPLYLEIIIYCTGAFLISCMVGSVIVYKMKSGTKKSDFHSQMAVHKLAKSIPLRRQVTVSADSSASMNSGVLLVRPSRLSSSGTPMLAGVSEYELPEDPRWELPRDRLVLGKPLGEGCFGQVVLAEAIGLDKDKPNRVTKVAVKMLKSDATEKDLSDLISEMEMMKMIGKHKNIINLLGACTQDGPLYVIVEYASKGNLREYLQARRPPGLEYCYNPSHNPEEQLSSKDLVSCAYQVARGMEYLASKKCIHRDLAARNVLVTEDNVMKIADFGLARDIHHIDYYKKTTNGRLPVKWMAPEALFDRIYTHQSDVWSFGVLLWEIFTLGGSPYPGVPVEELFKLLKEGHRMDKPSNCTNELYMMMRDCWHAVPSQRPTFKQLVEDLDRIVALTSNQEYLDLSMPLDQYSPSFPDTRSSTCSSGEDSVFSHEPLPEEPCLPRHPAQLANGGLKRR
Description: Inhibition of FGFR1 (unknown origin) after 90 mins by TR-FRET assay

Chain of Fibroblast growth factor receptor 3 (P22607 whole entry): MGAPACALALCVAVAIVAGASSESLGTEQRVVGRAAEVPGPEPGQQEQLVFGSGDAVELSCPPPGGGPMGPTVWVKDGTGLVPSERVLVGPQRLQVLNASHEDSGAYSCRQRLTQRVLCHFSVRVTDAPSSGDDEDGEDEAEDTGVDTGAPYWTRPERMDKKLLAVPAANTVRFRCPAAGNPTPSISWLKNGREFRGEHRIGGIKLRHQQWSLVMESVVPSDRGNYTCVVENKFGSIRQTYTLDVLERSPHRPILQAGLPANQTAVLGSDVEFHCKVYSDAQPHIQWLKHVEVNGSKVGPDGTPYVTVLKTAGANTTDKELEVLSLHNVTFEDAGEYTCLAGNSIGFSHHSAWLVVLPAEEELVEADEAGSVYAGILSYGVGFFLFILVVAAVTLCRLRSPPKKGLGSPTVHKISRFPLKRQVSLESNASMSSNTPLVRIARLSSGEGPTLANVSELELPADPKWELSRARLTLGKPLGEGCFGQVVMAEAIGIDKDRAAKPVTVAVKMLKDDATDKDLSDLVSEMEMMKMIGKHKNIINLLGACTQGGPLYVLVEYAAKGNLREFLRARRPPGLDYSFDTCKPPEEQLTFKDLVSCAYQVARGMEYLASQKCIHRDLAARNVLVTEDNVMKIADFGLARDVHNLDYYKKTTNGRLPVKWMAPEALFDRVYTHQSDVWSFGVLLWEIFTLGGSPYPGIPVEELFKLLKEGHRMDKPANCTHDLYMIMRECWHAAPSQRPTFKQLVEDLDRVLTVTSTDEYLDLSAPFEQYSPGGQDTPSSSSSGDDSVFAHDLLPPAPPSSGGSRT
T1 sequence (P22455 whole entry): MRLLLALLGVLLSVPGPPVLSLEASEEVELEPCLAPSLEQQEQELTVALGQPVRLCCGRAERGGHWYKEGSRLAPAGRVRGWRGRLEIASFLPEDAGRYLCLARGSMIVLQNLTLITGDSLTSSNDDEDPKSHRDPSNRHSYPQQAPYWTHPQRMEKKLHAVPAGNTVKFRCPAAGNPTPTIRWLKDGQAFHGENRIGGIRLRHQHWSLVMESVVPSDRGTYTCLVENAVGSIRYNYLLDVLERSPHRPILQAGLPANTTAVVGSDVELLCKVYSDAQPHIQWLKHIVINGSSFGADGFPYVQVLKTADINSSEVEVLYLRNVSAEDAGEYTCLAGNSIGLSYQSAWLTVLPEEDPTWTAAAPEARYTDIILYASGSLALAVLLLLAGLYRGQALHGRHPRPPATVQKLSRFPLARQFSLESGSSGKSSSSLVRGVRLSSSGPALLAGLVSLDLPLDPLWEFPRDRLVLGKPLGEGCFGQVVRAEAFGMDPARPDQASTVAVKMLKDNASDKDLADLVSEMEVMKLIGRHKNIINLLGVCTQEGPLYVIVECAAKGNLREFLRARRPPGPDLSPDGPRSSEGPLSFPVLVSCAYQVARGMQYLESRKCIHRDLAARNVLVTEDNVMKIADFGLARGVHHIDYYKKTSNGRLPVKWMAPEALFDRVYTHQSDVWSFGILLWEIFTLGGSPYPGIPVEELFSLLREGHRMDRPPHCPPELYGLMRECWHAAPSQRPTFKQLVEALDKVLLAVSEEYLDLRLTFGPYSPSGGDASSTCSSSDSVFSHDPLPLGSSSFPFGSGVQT
Chain of Fibroblast growth factor receptor 2 (P21802 whole entry): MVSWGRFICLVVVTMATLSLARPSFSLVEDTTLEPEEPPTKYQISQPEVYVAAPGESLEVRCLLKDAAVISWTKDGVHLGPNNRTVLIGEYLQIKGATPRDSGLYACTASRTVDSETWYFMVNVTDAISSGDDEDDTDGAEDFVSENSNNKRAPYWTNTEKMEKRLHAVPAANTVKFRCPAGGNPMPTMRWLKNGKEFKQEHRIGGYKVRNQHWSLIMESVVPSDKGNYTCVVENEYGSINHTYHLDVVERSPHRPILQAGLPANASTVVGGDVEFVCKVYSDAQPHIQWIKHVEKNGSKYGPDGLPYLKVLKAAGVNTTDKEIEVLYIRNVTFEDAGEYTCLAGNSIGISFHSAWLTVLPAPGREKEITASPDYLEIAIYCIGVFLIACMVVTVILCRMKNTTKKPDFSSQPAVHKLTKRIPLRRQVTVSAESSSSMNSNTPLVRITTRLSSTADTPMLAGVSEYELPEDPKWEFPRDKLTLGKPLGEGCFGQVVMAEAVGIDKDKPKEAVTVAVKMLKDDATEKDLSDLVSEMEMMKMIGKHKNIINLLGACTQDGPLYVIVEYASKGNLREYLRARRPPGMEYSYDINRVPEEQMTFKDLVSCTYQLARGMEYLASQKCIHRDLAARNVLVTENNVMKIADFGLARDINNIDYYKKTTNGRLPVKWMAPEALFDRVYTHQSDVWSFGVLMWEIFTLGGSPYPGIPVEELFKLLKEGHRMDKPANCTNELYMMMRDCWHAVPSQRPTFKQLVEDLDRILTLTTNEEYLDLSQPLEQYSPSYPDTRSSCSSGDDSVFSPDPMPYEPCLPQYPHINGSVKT

IC50 [3] | IC50 [5] | IC50 [6] | IC50 [8] | IC50 [9] | SMILES | IC50 [1] | IC50 [2] | IC50 [4] | IC50 (A549) | Activity [7]
0.02 µM | 0.13 µM | – | – | – | CN1CCN(c2ccc(-c3nc4c(N5CCN(CC(=O)Nc6nccs6)CC5)c(Cl)cnc4[nH]3)cc2)CC1 | 27.6 µM | 4.37 µM | 1.61 µM | 2.59 µM | –
– | > 20 µM | > 20 µM | – | – | Nc1nc(O)c2nc(-c3ccccc3)[nH]c2n1 | – | – | – | – | –
– | > 20 µM | > 20 µM | – | – | COc1ccccc1-c1nc2c(O)nc(N)nc2[nH]1 | – | – | – | – | –
– | > 20 µM | > 20 µM | – | – | Cc1ccc(-c2nc3c(O)nc(N)nc3[nH]2)c(C)c1 | – | – | – | – | –
– | > 20 µM | > 20 µM | – | – | Nc1nc(O)c2nc(-c3c[nH]c4ccccc34)[nH]c2n1 | 47 µM | 15.4 µM | 10.3 µM | 10.4 µM | –
– | > 20 µM | > 20 µM | – | – | CC(=O)Nc1nc(O)c2nc(-c3ccccc3)[nH]c2n1 | – | – | – | – | –
– | > 20 µM | > 20 µM | – | – | COc1ccccc1-c1nc2c(O)nc(NC(C)=O)nc2[nH]1 | – | – | – | – | –
– | > 20 µM | > 20 µM | – | – | COc1cccc(-c2nc3c(O)nc(NC(C)=O)nc3[nH]2)c1OC | 50 µM | 10.5 µM | 10.8 µM | 11.9 µM | –
– | > 20 µM | – | – | – | CC(=O)Nc1nc(O)c2nc(-c3ccc(C)cc3C)[nH]c2n1 | – | – | – | – | –
– | > 20 µM | – | – | – | CC(=O)Nc1nc(O)c2nc(-c3c[nH]c4ccccc34)[nH]c2n1 | 47.7 µM | 10.8 µM | 8.96 µM | 9.39 µM | –
– | > 20 µM | – | – | – | CC(=O)Nc1nc(O)c2nc(-c3c[nH]c4cccc(Br)c34)[nH]c2n1 | 46.6 µM | 9.72 µM | 6.59 µM | 8.28 µM | Non-toxic
– | 0.56 µM | 0.29 µM | 0.13 µM | 0.11 µM | CC(C)(C)NC(=O)Nc1nc2nc(N)ncc2cc1-c1c(Cl)cccc1Cl | 28.4 µM | 3.87 µM | 2.62 µM | 4.34 µM | –
– | – | – | – | – | COc1cc(CCc2cc(NC(=O)c3ccc(N4C[C@@H](C)N[C@@H](C)C4)cc3)n[nH]2)cc(OC)c1 [FEXAGRATINIB] | 18.2 µM | 0.14 µM | 0.051 µM | 0.062 µM | Non-toxic
